Target: T1, hTSHR (Homo sapiens, UniProt P16473)
T1 construct: expressed in transfected cells
Assay: hTSHR TR-FRET cAMP Assay (inhibition of M22-stimulated cAMP production)
Type: cell-based
Details: Expi293F Inducible cells stably expressing hTSHR; cAMP HTRF; stimulated with EC80 of anti-TSHR antibody M22; 15 min compound preincubation, 30 min at 37° C.; read-out: Activity (IC50 bins)
Method in brief: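 Readout was a cAMP HTRF ratio of 655/620 nm after lysis, scaled between the EC80 M22 signal (0% inhibition) and no-agonist vehicle (100%). Frozen induced Expi293F-hTSHR cells saw test compounds (0.5% DMSO) for 15 min at 37 °C before 30 min of M22 stimulation at EC80.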

T1 sequence (P16473 21-764): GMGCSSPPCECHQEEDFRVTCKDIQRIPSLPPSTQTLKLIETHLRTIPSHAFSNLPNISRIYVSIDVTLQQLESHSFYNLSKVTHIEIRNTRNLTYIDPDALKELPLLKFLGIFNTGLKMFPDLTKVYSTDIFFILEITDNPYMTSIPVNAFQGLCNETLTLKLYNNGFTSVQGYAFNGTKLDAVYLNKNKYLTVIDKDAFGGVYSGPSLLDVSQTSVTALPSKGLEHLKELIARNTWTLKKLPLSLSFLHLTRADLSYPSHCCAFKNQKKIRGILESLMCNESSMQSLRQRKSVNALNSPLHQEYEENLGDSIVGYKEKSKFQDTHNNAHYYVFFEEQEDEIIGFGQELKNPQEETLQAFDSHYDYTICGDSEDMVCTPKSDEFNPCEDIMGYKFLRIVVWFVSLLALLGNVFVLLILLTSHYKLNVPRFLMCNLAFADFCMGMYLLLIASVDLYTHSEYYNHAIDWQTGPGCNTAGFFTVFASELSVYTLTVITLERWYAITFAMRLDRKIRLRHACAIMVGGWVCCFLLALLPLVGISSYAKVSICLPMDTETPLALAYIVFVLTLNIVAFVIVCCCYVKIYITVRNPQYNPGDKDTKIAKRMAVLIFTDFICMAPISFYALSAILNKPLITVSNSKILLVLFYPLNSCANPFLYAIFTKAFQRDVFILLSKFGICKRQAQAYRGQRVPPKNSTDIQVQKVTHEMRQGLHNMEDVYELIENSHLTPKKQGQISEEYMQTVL

Q: For C[C@H]1Oc2cc(NC(=O)NC3(C)CCCC3)ccc2N([C@@H](C)c2ccccc2)C1=O [Example 256, 1-((R)-2-methyl-3-oxo-4-((S)-1-phenyl-ethyl)-3,4-dihydro-2H-benzo[b][1,4]oxazin-7-yl)-3-(1-methylcyclopentyl)-urea], which IC50 is on record?
A: < 0.1 µM

Q: With C[C@H]1Oc2cc(NC(=O)NC3(C(F)(F)F)CCCC3)ccc2N([C@@H](C)c2ccccc2)C1=O [Example 257, 1-((R)-2-methyl-3-oxo-4-((S)-1-phen-ylethyl)-3,4-dihydro-2H-benzo[b][1,4]oxazin-7-yl)-3-(1-(trifluoromethyl)-cyclopentyl)urea] as the molecule, how does the IC50 read?
A: < 0.1 µM

Q: With C[C@H]1Oc2cc(NC(=O)NC3CCC(F)(F)CC3)ccc2N([C@@H](C)c2ccccc2)C1=O [Example 258, 1-(4,4-difluoro-cyclohexyl)-3-((R)-2-methyl-3-oxo-4-((S)-1-phenyl-ethyl)-3,4-dihydro-2H-benzo[b][1,4]oxazin-7-yl)urea] as the molecule, how does the IC50 read?
A: 0.1 to 1 µM

Q: How did the IC50 turn out when C[C@H]1Oc2cc(NC(=O)NC3(C(F)(F)F)CCC3)ccc2N([C@@H](C)c2ccccc2)C1=O [Example 259, 1-((R)-2-methyl-3-oxo-4-((S)-1-phenylethyl)-3,4-dihydro-2H-benzo [b][1,4]oxazin-7-yl)-3-(1-(trifluoro-methyl)cyclo-butyl)urea] was run?
A: < 0.1 µM

Q: With C[C@H]1Oc2cc(NC(=O)NC3(C)CC(F)(F)C3)ccc2N([C@@H](C)c2ccccc2)C1=O [Example 260, 1-(3,3-difluoro-1-methylcyclobutyl)-3-((R)-2-methyl-3-oxo-4-((S)-1-phen-ylethyl)-3,4-dihydro-2H-benzo[b][1,4]oxazin-7-yl)urea] as the molecule, how does the IC50 read?
A: 0.1 to 1 µM

Q: COCC1(NC(=O)Nc2ccc3c(c2)O[C@H](C)C(=O)N3[C@@H](C)c2ccccc2)CCC1 [Example 261, 1-(1-(methoxy-methyl)cyclobutyl)-3-((R)-2-methyl-3-oxo-4-((S)-1-phen-ylethyl)-3,4-dihydro-2H-benzo [b][1,4]oxazin-7-yl)urea] was tested. Which IC50 did it give?
A: 0.1 to 1 µM

Q: How did the IC50 turn out when C[C@H]1Oc2cc(NC(=O)NC3(C)COC3)ccc2N([C@@H](C)c2ccccc2)C1=O [Example 262, 1-((R)-2-methyl-3-oxo-4-((S)-1-phenylethyl)-3,4-dihydro-2H-benzo [b][1,4]oxazin-7-yl)-3-(3-methyl-oxetan-3-yl)urea] was run?
A: > 1 µM

Q: Which IC50 does the source give for C[C@H]1Oc2cc(NC(=O)NC3(C(F)(F)F)COC3)ccc2N([C@@H](C)c2ccccc2)C1=O [Example 263, 1-((R)-2-methyl-3-oxo-4-((S)-1-phen-ylethyl)-3,4-dihydro-2H-benzo[b][1,4]oxazin-7-yl)-3-(3-(trifluoromethyl)-oxetan-3-yl)urea] here?
A: 0.1 to 1 µM

Q: How did the IC50 turn out when C[C@H]1Oc2cc(NC(=O)NC3(C(F)(F)F)CC(F)(F)C3)ccc2N([C@@H](C)c2ccccc2)C1=O [Example 264, 1-(3,3-difluoro-1-(trifluoromethyl)-cyclobutyl)-3-((R)-2-methyl-3-oxo-4-((S)-1-phenylethyl)-3,4-dihydro-2H-benzo[b][1,4]oxazin-7-yl)urea] was run?
A: 0.1 to 1 µM

Q: C[C@H]1Oc2cc(NC(=O)NC3(C)CCOCC3)ccc2N([C@@H](C)c2ccccc2)C1=O [Example 265, 1-((R)-2-methyl-3-oxo-4-((S)-1-phen-ylethyl)-3,4-dihydro-2H-benzo[b][1,4]oxazin-7-yl)-3-(4-methyltetrahydro-2H-pyran-4-yl)urea] was tested. Which IC50 did it give?
A: 0.1 to 1 µM

Q: Cc1ccc(C#N)c(CN2C(=O)CCc3cc(NC(=O)NC(C)(C)C)ccc32)c1 [Example 266, 3-tert-butyl-1-{1-[(2-cyano-5-methylphenyl)methyl]-2-oxo-3,4-dihydroquinolin-6-yl}urea] was tested. Which IC50 did it give?
A: > 1 µM

Q: With CC(C)(C)NC(=O)Nc1ccc2c(c1Cl)CCC(=O)N2Cc1ccccc1 [Example 267, 1-(1-benzyl-5-chloro-2-oxo-1,2,3,4-tetrahydroquinolin-6-yl)-3-(tert-butyl)urea] as the molecule, how does the IC50 read?
A: 0.1 to 1 µM

Q: With C[C@@H]1Oc2cc(NC(=O)NC(C)(C)C)ccc2N([C@@H](C)c2ccccc2)C1=O [Example 268, 1-(tert-butyl)-3-((S)-2-methyl-3-oxo-4-((S)-1-phenylethyl)-3,4-dihydro-2H-benzo[b][1,4]oxazin-7-yl)urea] as the molecule, how does the IC50 read?
A: 0.1 to 1 µM

Q: How did the IC50 turn out when C[C@H]1Oc2cc(NC(=O)NC(C)(C)C)ccc2N([C@@H](C)c2ccccc2)C1=O [Example 269, 1-(tert-butyl)-3-((R)-2-methyl-3-oxo-4-((S)-1-phenylethyl)-3,4-dihydro-2H-benzo[b][1,4]oxazin-7-yl)urea] was run?
A: < 0.1 µM

Q: With CC(C)(C)NC(=O)Nc1cc2c(cc1C#N)N(Cc1ccccc1)C(=O)CC2 [Example 270, 1-(1-benzyl-7-cyano-2-oxo-3,4-dihydroquinolin-6-yl)-3-tert-butylurea] as the molecule, how does the IC50 read?
A: > 1 µM

Q: CC(c1cccc(C(F)(F)F)c1)N1C(=O)N(C)Cc2cc(NC(=O)NC(C)(C)C)ccc21 (centres unmarked) [Example 271, 1-(tert-butyl)-3-(3-methyl-2-oxo-1-(1-(3-(trifluoromethyl)phenyl)ethyl)-1,2,3,4-tetrahydroquinazolin-6-yl)urea] was tested. Which IC50 did it give?
A: > 1 µM

Q: Cc1nc2cc(NC(=O)NC(C)(C)C)ccc2n(Cc2ccccc2)c1=O [Example 272, 1-(1-benzyl-3-methyl-2-oxo-1,2-dihydroquinoxalin-6-yl)-3-(tert-butyl)urea] was tested. Which IC50 did it give?
A: > 1 µM

Q: How did the IC50 turn out when Cc1nc2cc(NC(=O)NC(C)(C)C)ccc2n(Cc2cccc(Cl)c2)c1=O [Example 273, 3-tert-butyl-1-{1-[(3-chlorophenyl)methyl]-3-methyl-2-oxoquinoxalin-6-yl}urea] was run?
A: 0.1 to 1 µM

Q: With CC(C)(C)NC(=O)Nc1ccc2c(n1)CCC(=O)N2Cc1cccc(C(F)(F)F)c1 [Example 274, 1-(tert-butyl)-3-(6-oxo-5-(3-(trifluoromethyl)benzyl)-5,6,7,8-tetrahydro-1,5-naphthyridin-2-yl)urea] as the molecule, how does the IC50 read?
A: 0.1 to 1 µM

Q: How did the IC50 turn out when CC(C)(C)NC(=O)Nc1ccc2c(c1)C[C@H](CC#N)C(=O)N2Cc1ccccc1 [Example 275, (R)-1-(1-benzyl-3-(cyanomethyl)-2-oxo-1,2,3,4-tetrahydroquinolin-6-yl)-3-(tert-butyl)urea] was run?
A: > 1 µM

Q: For CC(C)(C)NC(=O)Nc1ccc2c(c1)C[C@@H](CC#N)C(=O)N2Cc1ccccc1 [Example 276, (S)-1-(1-benzyl-3-(cyanomethyl)-2-oxo-1,2,3,4-tetrahydroquinolin-6-yl)-3-(tert-butyl)urea], which IC50 is on record?
A: > 1 µM

Q: With CC[C@H]1Oc2cc(NC(=O)NC(C)(C)C)ccc2N(Cc2ccccc2)C1=O [Example 277, (R)-1-(4-benzyl-2-ethyl-3-oxo-3,4-dihydro-2H-benzo[b][1,4]oxazin-7-yl)-3-(tert-butyl)urea] as the molecule, how does the IC50 read?
A: > 1 µM

Q: With CC[C@@H]1Oc2cc(NC(=O)NC(C)(C)C)ccc2N(Cc2ccccc2)C1=O [Example 278, (S)-1-(4-benzyl-2-ethyl-3-oxo-3,4-dihydro-2H-benzo[b][1,4]oxazin-7-yl)-3-(tert-butyl)urea] as the molecule, how does the IC50 read?
A: > 1 µM

Q: Which IC50 does the source give for CC(C)(C)NC(=O)Nc1ccc2c(c1C#N)CCC(=O)N2Cc1ccccc1 [Example 279, 1-(1-benzyl-5-cyano-2-oxo-1,2,3,4-tetrahydroquinolin-6-yl)-3-(tert-butyl)urea] here?
A: > 1 µM

Q: For C[C@H]1Oc2nc(NC(=O)NC(C)(C)C)ccc2N(Cc2ccccc2)C1=O [Example 280, (R)-1-(1-benzyl-3-methyl-2-oxo-2,3-dihydro-1H-pyrido[2,3-b][1,4]oxazin-6-yl)-3-(tert-butyl)urea], which IC50 is on record?
A: 0.1 to 1 µM

Q: For CC(C)(C)NC(=O)Nc1ccc2c(n1)CCC(=O)N2Cc1cccc(Cl)c1 [Example 281, 1-(tert-butyl)-3-(5-(3-chlorobenzyl)-6-oxo-5,6,7,8-tetrahydro-1,5-naphthyridin-2-yl)urea], which IC50 is on record?
A: 0.1 to 1 µM

Q: With C[C@@H](c1cccc(C(F)(F)F)c1)N1C(=O)CCc2nc(NC(=O)NC(C)(C)C)ccc21 [Example 282, (S)-1-(tert-butyl)-3-(6-oxo-5-(1-(3-(trifluoromethyl)phenyl)ethyl)-5,6,7,8-tetrahydro-1,5-naphthyridin-2-yl)urea] as the molecule, how does the IC50 read?
A: 0.1 to 1 µM

Q: How did the IC50 turn out when C[C@H](c1cccc(C(F)(F)F)c1)N1C(=O)CCc2nc(NC(=O)NC(C)(C)C)ccc21 [Example 283, (R)-1-(tert-butyl)-3-(6-oxo-5-(1-(3-(trifluoromethyl)phenyl)ethyl)-5,6,7,8-tetrahydro-1,5-naphthyridin-2-yl)urea] was run?
A: > 1 µM

Q: With O=C(Nc1ccccc1)Nc1ccc2c(c1)CCC(=O)N2Cc1ccccc1 [Example 284, 3-(1-benzyl-2-oxo-3,4-dihydroquinolin-6-yl)-1-phenylurea] as the molecule, how does the IC50 read?
A: > 1 µM

Q: How did the IC50 turn out when CC(C)(C)CC(=O)Nc1ccc2c(c1)CCC(=O)N2Cc1ccccc1 [Example 285, N-(1-benzyl-2-oxo-3,4-dihydroquinolin-6-yl)-3,3-dimethylbutanamide] was run?
A: > 1 µM

Q: For C[C@@H]1Oc2nc(NC(=O)NC(C)(C)C)ccc2N(Cc2cccc(Cl)c2)C1=O [Example 286, (S)-1-(tert-butyl)-3-(1-(3-chlorobenzyl)-3-methyl-2-oxo-2,3-dihydro-1H-pyrido[2,3-b][1,4]oxazin-6-yl)urea], which IC50 is on record?
A: > 1 µM

Q: For C[C@H]1Oc2nc(NC(=O)NC(C)(C)C)ccc2N(Cc2cccc(Cl)c2)C1=O [Example 287, (R)-1-(tert-butyl)-3-(1-(3-chlorobenzyl)-3-methyl-2-oxo-2,3-dihydro-1H-pyrido[2,3-b][1,4]oxazin-6-yl)urea], which IC50 is on record?
A: 0.1 to 1 µM

Q: COC[C@@H]1Oc2cc(NC(=O)NC(C)(C)C)ccc2N(Cc2ccccc2)C1=O [Example 288, (S)-1-(4-benzyl-2-(methoxymethyl)-3-oxo-3,4-dihydro-2H-benzo[b][1,4]oxazin-7-yl)-3-(tert-butyl)urea] was tested. Which IC50 did it give?
A: > 1 µM

Q: For COC[C@H]1Oc2cc(NC(=O)NC(C)(C)C)ccc2N(Cc2ccccc2)C1=O [Example 289, (R)-1-(4-benzyl-2-(methoxymethyl)-3-oxo-3,4-dihydro-2H-benzo[b][1,4]oxazin-7-yl)-3-(tert-butyl)urea], which IC50 is on record?
A: > 1 µM

Q: Which IC50 does the source give for C[C@@H](c1cccc(Cl)c1)N1C(=O)CCc2nc(NC(=O)NC(C)(C)C)ccc21 [Example 290, (S)-1-(tert-butyl)-3-(5-(1-(3-chlorophenyl)ethyl)-6-oxo-5,6,7,8-tetrahydro-1,5-naphthyridin-2-yl)urea] here?
A: > 1 µM
